C1N2CN3CN1CN(C2)C3
Conditions	solubility (mole fraction)
in acetic acid, 304.52 K	0.245
in acetic acid, 310.83 K	0.245
in acetic acid, 317.35 K	0.246
in acetic acid, 321.91 K	0.249
in acetic acid, 327.65 K	0.25
in acetic acid, 332.65 K	0.251
in acetic acid, 337.15 K	0.256
in ethanol, 288.19 K	0.0085
in ethanol, 293.49 K	0.0096
in ethanol, 298.43 K	0.0107
in ethanol, 303.4 K	0.012
in ethanol, 312.91 K	0.0148
in methanol, 299.91 K	0.0234
in methanol, 304.45 K	0.0251
in methanol, 307.85 K	0.0264
in methanol, 311.9 K	0.028
in methanol, 315.95 K	0.0293
in methanol, 319.63 K	0.0304
in methanol, 323.65 K	0.032
in methanol, 326.25 K	0.0335
in methanol, 330.85 K	0.0353
in water, 303.21 K	0.098
in water, 307.4 K	0.0959
in water, 312.18 K	0.0948
in water, 317.05 K	0.0931
in water, 321.86 K	0.0914
in water, 326.15 K	0.0894
in water, 330.45 K	0.0891
in water, 335.42 K	0.0895
in water, 340.35 K	0.0914
